Molecular target: T1, recombinant human mPGES-1 (Homo sapiens, UniProt O14684)
T1 construct: made in house; host or cells: Rosetta E. coli (membrane/microsome fraction)
T1 sequence (O14684 1-152): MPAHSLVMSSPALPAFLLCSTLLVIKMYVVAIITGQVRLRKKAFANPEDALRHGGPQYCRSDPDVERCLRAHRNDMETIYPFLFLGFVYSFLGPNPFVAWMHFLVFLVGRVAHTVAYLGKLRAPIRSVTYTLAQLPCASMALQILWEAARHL
Assay: Assay B: mPGES-1 enzyme assay (modified)
Format: biochemical
Conditions: biological assay B (modified); PGH2 final conc. 2 μM; read-out: mPGES-1 inhibitory effect IC50
Procedure: Assay B: mPGES-1 Enzyme Assay (Modified)
Microsomes from Rosetta E. coli bacteria expressing recombinant human mPGES-1 can be derived as described below:
Inoculate 5 ml LB with Ampicilin (50 μg/ml) and Chloramphenicol (34 μg/ml) with bacteria from freeze culture. Incubate 8 h at 37° C. with 200 rpm. Thereafter, inoculate 500-1000 ml LB containing Ampicilin and Chloramphenicol with the 5 ml on culture and grow to OD640 of 0.8-1.0. Chill the culture to +4° C. before induction. Induce the culture with IPTG at a final concentration of 400 μM. Express the protein at room temp 18-23° C. with 200 rpm shaking overnight.
The following steps can be performed on the following day: • 1. Spin down the cells in 250 ml centrifuge flasks for 15 min at 7000 rpm (Beckmann Coulte Avanti J-E centrifuge) • 2. Dissolve the pellet from 250 ml culture in 12.5 ml homogenization buffer • 3. (15 mM Tris-HCL pH8, 1 mM EDTA pH8, […], 2.5 mM GSH, 1 Tablet Protease inhibitor per 50 ml buffer) • 4. Disintegrate the cells by sonication, 5×10 seconds at 48% amplitude of a 750 W sonifier • 5. Add 2.5 ml MgCl2 (100 mM) and DNase 12.5 μl (0.8 mg/ml) and incubate on ice for 30 min • 6. Spin down the bacteria debris and save the supernatant, 7000 rpm for 15 min • 7. Isolate the protein containing membranes in the supernatant by ultracentrifugation 120000×g for 2 hour at 4° C. (Sorvall T880 rotor). • 8. Discard the supernatant and dissolve the pellet in 20 mM Potassium phosphate buffer pH7.4 (KH2PO4 and K2HPO4) buffer by sonication (5×10 s, 30% of a 50 W sonifier) and aliquot the enzyme and store aliquots at −80° C.
Before each experiment is performed an aliquot of the enzyme is thawed and it can then be dissolved in 0.1 M Potassium phosphate buffer pH7.4 (KH2PO4 and K2HPO4) buffer containing 2.5 mM GSH.
The aim of this assay is to determine the affinity of a test compound for the mPGES-1 enzyme.
47 μl of recombinant human mPGES-1 (˜0.5 μg protein/well) containing microsomal suspension in a buffer containing GSH, (2.5 mmol/L L-Glutathione reduced, dissolved in 0.1 mol/L Phosphat Buffer pH 7.4) is dispensed in a 384-well plate and thereafter 1 μl of the test compound(s) is/are added and incubated for 25 minutes at room temperature. The enzyme reaction is started by the addition of 2 ul PGH2 (final conc. 2 μM) dissolved in water-free Diglyme. After 60 seconds the reaction is terminated by addition of a stop solution containing FeCl2 (10 μL 0.074 mol/l FeCl2). The samples are diluted between 1:25 in PBS (Phosphate Buffered Saline). 10 μl of the diluted samples are transferred to 384-well low volume plate. In order to quantify the amount of PGE2 that has been formed, a homogenous time resolved fluorescent (HTRF) detecting of PGE2 has been performed using a commercially available kit from Cisbio according to the manufactures recommendation. This HTRF-based assay has been described in detail (see: Goedken et al., J Biomol Screen, 2008, 13(7), 619-625). Briefly, the diluted samples are mixed with 5 μl PGE2-d2 conjungate and 5 μl anti-PGE2 cryptate conjungate. After an incubation period of the plates overnight, the fluorescence is measured by the use of an appropriate microplate reader.
The fluorescence of Europium cryptate (maxex=307 nm, maxem=620 nm) and d2-PGE2 (maxex=620 nm, maxem=665 nm) are measured.
The extent of the specific HTRF is measured as a ratio of the emission intensity at 665 nm vs. that at 620 nm at an excitation puls of 320 nm. The quantification plate contains also wells with different concentrations of PGE2 as calibration curve for the calculation of the PGE2 concentrations from the HTRF ratio values.
From all mPGES enzyme assay the background is subtracted and the IC50 is calculated over a nonlinear regression with conventional software.

IC50 | Structure (SMILES)
5 nM | CC(C)(C)C(=O)NCc1ccc(Cl)c(Nc2nc3cc(C#N)c(N4CCC(C(F)(F)F)CC4)cc3[nH]2)c1Cl [Example 131]
6.5 nM | Cn1c(Nc2c(F)ccc(CNC(=O)C(C)(C)C)c2F)nc2cc(Cl)c(N3CCC(C(F)(F)F)CC3)cc21 [Example 70, N-{2,4-Difluoro-3-[5-chloro-1-methyl-6-(4-trifluoromethyl-piperidin-1-yl)-1H-benzimidazol-2-ylamino]-benzyl}-2,2-dimethyl-propionamide]
5.7 nM | CC(C)(C)C(=O)NCc1ccc(Cl)c(Nc2nc3cc(Cl)c(N4CCC(C(F)(F)F)CC4)cc3[nH]2)c1Cl [Example 40, N-{2,4-Dichloro-3-[5-chloro-6-(4-trifluoromethyl-piperidin-1-yl)-1H-benzimidazol-2-ylamino]-benzyl}-2,2-dimethyl-propionamide]
2.2 nM | CC(C)(C)C(=O)NCc1ccc(Cl)c(Nc2nc3cc(Cl)c(N4CCCC(C(F)(F)F)C4)cc3[nH]2)c1Cl (stereo not drawn) [Example 52]
9 nM | CC(C)(C)C(=O)NCc1ccc(Cl)c(Nc2nc3cc(Cl)c(N4CCC(F)CC4)cc3[nH]2)c1F [Example 48]
2 nM | Cn1c(Nc2c(Cl)ccc(CNC(=O)C(C)(C)C)c2Cl)nc2cc(Cl)c(N3CCC(C(F)(F)F)C3)cc21 (stereo not drawn) [Example 59]
5 nM | CC(C)(C)C(=O)NCc1ccc(Cl)c(Nc2nc3cc(C(F)(F)F)c(N4CCC(C(F)(F)F)CC4)cc3[nH]2)c1Cl [Example 61, N-{2,4-Dichloro-3-[5-trifluoromethyl-6-(4-trifluoromethyl-piperidin-1-yl)-1H-benzimidazol-2-ylamino]benzyl}-2,2-dimethyl-propionamide]

The remaining lines, values behind:

Structure (SMILES) | IC50
Cn1c(Nc2cc(CNC(=O)C3(C(F)(F)F)CC3)ccc2Cl)nc2cc(Cl)c(N3CCN(CC(F)(F)F)CC3)cc21 [Example 92] | 39 nM
Cn1c(Nc2cc(CNC(=O)C(C)(C)C(F)(F)F)ccc2Cl)nc2cc(Cl)c(N3CCC(c4ccccc4)CC3)cc21 [Example 97] | 3.1 nM
Cn1c(Nc2cc(CNC(=O)C(C)(C)C)ccc2Cl)nc2cc(N3CCC(C(F)(F)F)CC3)ccc21 [Example 12] | 174 nM
Cn1c(Nc2c(Cl)ccc(CNC(=O)C(C)(C)C)c2F)nc2cc(Cl)c(N3CCC(F)CC3)cc21 [Example 33, N-{2-Fluoro-4-chloro-3-[5-chloro-1-methyl-6-(4-fluoro-piperidin-1-yl)-1H-benzimidazol-2-ylamino]-benzyl}-2,2-dimethyl-propionamide] | 3 nM
CN(CC(C)(C)O)c1cc2c(cc1Cl)nc(Nc1c(Cl)ccc(CNC(=O)C(C)(C)C)c1F)n2C [Example 37] | 7.8 nM
Cn1c(Nc2c(Cl)ccc(CNC(=O)OC(C)(C)C)c2Cl)nc2cc(Cl)c(N3CCCC(C(F)(F)F)C3)cc21 (stereo not drawn) [Example 51] | 23 nM
Cn1c(Nc2c(Cl)ccc(CNC(=O)C(C)(C)C)c2Cl)nc2cc(Cl)c(N3CCCC(C(F)(F)F)C3)cc21 (stereo not drawn) [Example 53] | 3.5 nM
Cn1c(Nc2cc(CNC(=O)C(C)(C)C(F)(F)F)ccc2Cl)nc2cc(Cl)c(N3CCN(c4ccc(C(F)(F)F)cc4)CC3)cc21 [Example 98] | 6.5 nM
